Patent US11179391B2, “Compound with kinase inhibitory activity and preparation method and use thereof” (priority 2017, dated 2021)

Key:
[1] = system: Human leukemia MV4-11 cells; test: Pharmacodynamic study on mouse MV4-11 model (subcutaneous xenograft); type: in vivo, BALB/c nude mice; conditions: for tumor inhibition effect compared with Abemaciclib (in words) / Tumor volume (day 0) / Tumor volume (day 21) / T/C relative tumor proliferation rate / TGI tumor growth inhibition rate: MV4-11 model, 50 mg/kg PO × 21 days; for Tumor volume (day 0): baseline at start of dosing; for Tumor volume (day 0) / Tumor volume (day 21) / T/C relative tumor proliferation rate / TGI tumor growth inhibition rate: mesylate; for T/C relative tumor proliferation rate / TGI tumor growth inhibition rate: day 21; for inhibitory effect on the tumor growth (in words): MV4-11 nude mouse model, 50 mg/kg, continuous PO administration for 21 days
CDK1/CyclinB = CDK1/CyclinB (Homo sapiens, UniProt P06493); test: Determination of CDK activity (Caliper mobility shift, FAM-P8 peptide): CDK1; type: biochemical; conditions: CDK1/CyclinB; read-out: CDK1 enzymatic inhibitory activity (IC50)
[2] = system: Human breast cancer MDA-MB-361 cells; test: Pharmacodynamic study on mouse MDA-MB-361 model (subcutaneous xenograft); type: in vivo, SCID Beige mice; conditions: for inhibitory effect on the tumor growth (in words): 15 mg/kg, continuous PO administration for 28 days; for Tumor volume (day 0): baseline at start of dosing; for Tumor volume (day 0) / Tumor volume (day 28) / T/C relative tumor proliferation rate / TGI tumor growth inhibition: methanesulfonic acid salt, 15 mg/kg PO × 28 days; for T/C relative tumor proliferation rate / TGI tumor growth inhibition: day 28
CDK9/cyclinTl = CDK9/cyclinTl (Homo sapiens, UniProt P50750); test: Determination of CDK activity (Caliper mobility shift, FAM-P8 peptide): CDK9; type: biochemical; conditions: CDK9/cyclinTl; read-out: CDK9 enzymatic inhibitory activity (IC50)
CDK4/CycD3 = CDK4/CycD3 (Homo sapiens, UniProt P11802); test: Determination of CDK activity (Caliper mobility shift, FAM-P8 peptide): CDK4; type: biochemical; conditions: CDK4/CycD3; read-out: CDK4 enzymatic inhibitory activity (IC50)
How it was run: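 GST-CDK4(1-303)/GST-CycD3(1-292) was preincubated with compound for 10 min at room temperature, then FAM-P8 peptide and ATP were added; the reaction ran at 28 °C and was stopped with EDTA-containing stop buffer. Peptide conversion was read by Caliper mobility shift. A 10-point dilution series was fitted for IC50.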

[3] = system: Human breast cancer MCF-7 cells; test: Pharmacodynamic study on mouse MCF-7 model (subcutaneous xenograft); type: in vivo, BALB/c nude mice; conditions: for Tumor volume (day 0) / antitumor effect compared with Abemaciclib (in words) / Tumor volume (day 14) / T/C relative tumor proliferation rate / TGI tumor growth inhibition rate: MCF-7 model; for Tumor volume (day 0): baseline at start of dosing; for Tumor volume (day 0) / Tumor volume (day 14) / T/C relative tumor proliferation rate / TGI tumor growth inhibition rate: mesylate, 30 mg/kg PO × 14 days; for antitumor effect compared with Abemaciclib (in words): same dosage (30 mg/kg PO × 14 days); for T/C relative tumor proliferation rate / TGI tumor growth inhibition rate: day 14; for inhibitory effect on the tumor growth (in words): MCF-7 nude mouse model, 30 mg/kg, continuous PO administration for 14 days

Chain of CDK4/CycD3 (P11802 whole entry): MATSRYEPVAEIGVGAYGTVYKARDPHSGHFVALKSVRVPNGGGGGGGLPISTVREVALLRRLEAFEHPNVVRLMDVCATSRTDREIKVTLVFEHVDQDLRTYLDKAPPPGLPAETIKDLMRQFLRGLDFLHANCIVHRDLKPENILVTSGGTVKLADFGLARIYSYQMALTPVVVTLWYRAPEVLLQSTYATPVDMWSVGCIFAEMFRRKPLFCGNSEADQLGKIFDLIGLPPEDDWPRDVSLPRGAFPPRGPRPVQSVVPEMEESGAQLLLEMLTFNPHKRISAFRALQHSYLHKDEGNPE
Chain of CDK4/CycD3 (P30281 whole entry partner): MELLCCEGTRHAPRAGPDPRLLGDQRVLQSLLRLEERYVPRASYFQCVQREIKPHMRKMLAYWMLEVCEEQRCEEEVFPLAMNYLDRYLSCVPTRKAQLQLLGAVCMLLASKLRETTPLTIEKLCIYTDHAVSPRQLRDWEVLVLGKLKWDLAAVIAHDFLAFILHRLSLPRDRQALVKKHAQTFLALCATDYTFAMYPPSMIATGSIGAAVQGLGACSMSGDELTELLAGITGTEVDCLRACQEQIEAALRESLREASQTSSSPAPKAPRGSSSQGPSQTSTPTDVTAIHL
Chain of CDK9/cyclinTl (P50750 whole entry): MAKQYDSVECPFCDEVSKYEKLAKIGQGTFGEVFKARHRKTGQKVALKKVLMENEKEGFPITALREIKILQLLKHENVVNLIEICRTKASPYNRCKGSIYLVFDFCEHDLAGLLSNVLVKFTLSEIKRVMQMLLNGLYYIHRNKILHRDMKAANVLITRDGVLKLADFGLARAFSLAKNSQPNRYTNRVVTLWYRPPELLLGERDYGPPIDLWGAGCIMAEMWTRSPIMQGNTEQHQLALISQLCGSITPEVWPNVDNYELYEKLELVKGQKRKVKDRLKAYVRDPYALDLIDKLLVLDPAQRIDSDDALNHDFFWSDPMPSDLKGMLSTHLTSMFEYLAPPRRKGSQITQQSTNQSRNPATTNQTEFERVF
Chain of CDK9/cyclinTl (O60563 whole entry partner): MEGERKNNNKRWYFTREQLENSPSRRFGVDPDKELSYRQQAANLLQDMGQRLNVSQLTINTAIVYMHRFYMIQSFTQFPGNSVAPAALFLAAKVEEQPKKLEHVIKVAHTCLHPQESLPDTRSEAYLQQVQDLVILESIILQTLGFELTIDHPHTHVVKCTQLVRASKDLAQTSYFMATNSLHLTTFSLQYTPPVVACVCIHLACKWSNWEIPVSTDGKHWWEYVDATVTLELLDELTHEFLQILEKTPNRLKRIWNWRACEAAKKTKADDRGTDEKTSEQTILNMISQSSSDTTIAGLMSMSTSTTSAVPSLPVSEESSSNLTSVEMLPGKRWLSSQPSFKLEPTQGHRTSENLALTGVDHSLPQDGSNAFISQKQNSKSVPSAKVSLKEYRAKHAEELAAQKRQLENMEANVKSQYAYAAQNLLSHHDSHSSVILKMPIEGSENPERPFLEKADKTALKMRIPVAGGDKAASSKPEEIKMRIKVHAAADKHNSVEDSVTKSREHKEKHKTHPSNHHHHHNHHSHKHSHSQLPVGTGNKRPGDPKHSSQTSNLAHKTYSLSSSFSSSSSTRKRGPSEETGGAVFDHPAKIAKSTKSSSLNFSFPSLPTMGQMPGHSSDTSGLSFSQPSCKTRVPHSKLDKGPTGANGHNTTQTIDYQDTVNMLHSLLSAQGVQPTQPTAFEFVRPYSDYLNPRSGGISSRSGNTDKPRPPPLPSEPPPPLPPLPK
Chain of CDK1/CyclinB (P06493 whole entry): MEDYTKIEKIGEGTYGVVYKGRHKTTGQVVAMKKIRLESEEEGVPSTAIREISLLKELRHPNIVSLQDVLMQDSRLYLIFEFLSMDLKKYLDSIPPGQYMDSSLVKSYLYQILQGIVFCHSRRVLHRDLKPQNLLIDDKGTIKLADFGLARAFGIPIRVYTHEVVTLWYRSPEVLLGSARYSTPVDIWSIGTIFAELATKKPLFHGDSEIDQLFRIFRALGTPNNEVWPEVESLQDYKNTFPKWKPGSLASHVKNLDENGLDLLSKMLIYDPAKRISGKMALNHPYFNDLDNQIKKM
Chain of CDK1/CyclinB (P14635 whole entry partner): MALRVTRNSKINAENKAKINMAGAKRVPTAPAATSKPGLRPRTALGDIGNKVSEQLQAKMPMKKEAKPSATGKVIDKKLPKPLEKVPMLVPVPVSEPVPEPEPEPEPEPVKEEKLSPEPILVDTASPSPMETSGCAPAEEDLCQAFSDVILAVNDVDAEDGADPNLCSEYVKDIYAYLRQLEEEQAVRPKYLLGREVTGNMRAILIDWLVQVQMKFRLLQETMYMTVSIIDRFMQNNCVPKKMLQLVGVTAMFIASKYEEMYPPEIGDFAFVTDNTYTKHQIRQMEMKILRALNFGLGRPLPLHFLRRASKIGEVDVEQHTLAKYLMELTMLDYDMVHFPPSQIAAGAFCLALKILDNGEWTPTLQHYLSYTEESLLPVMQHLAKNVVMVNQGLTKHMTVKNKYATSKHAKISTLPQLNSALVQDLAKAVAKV

Row | Compound | tumor inhibition effect compared with Abemaciclib (in words) [1] | Tumor volume (day 0) [1] [mm^3] | Tumor volume (day 21) [1] [mm^3] | T/C relative tumor proliferation rate [1] [%] | TGI tumor growth inhibition rate [1] [%] | inhibitory effect on the tumor growth (in words) [1] | IC50 (CDK1/CyclinB) [nM] | inhibitory effect on the tumor growth (in words) [2] | Tumor volume (day 0) [2] [mm^3] | Tumor volume (day 28) [2] [mm^3] | T/C relative tumor proliferation rate [2] [%] | TGI tumor growth inhibition [2] [%] | IC50 (CDK9/cyclinTl) [nM] | IC50 (CDK4/CycD3) [nM] | Tumor volume (day 0) [3] [mm^3] | antitumor effect compared with Abemaciclib (in words) [3] | Tumor volume (day 14) [3] [mm^3] | T/C relative tumor proliferation rate [3] [%] | TGI tumor growth inhibition rate [3] [%] | inhibitory effect on the tumor growth (in words) [3]
1 | CCN1CCC(C(C)c2ccc(Nc3ncc(F)c(-c4cc(F)c5nc(C)n(C(C)C)c5c4)n3)nc2)CC1 (single isomer, unassigned) [Example 17, (R or S)—N-(5-(1-(1-ethylpiperidin-4-yl)ethyl)pyridin-2-yl)-5-fluoro-4-(4-fluoro-1-isopropyl-2-methyl-1H-benzo[d]imidazol-6-yl) pyrimidin-2-amine] | equivalent to that of positive control compound Abemaciclib | 158 | 463 | 38 | 62 | good inhibitory effect | 100 to 500 | very strong inhibitory effect | 175 | 90 | −49 | 149 | 100 to 500 | < 100 | 210 | better antitumor effects than positive control compound Abemaciclib | 216 | 0.9 | 99.1 | strong inhibitory effect
2 | CCN1CCC(=Cc2ccc(Nc3ncc(F)c(-c4cc(F)c5nc(C)n(C(C)C)c5c4)n3)nc2)CC1 [Example 57, N-(5-((1-ethylpiperidin-4-ylidene)methyl)pyridin-2-yl)-5-fluoro-4-(4-fluoro-1-isopropyl-2-methyl-1H-benzo[d]imidazol-6-yl)pyrimidin-2-amine] | equivalent to that of positive control compound Abemaciclib | 158 | 491 | 41 | 59 | good inhibitory effect | 100 to 500 | very strong inhibitory effect | 175 | 99 | −43 | 143 | < 100 | < 100 | 209 | better antitumor effects than positive control compound Abemaciclib | 290 | 12.5 | 87.5 | strong inhibitory effect
